Read-outs that look alike come from different tables or passages of the source.
Tests used:
HCC-2998 [1] = test system: HCC-2998
[2] = test system: K562 human chronic myeloid leukemia cells; assay: cells; assay type: cell-based
Protocol: The cytotoxicity was determined using a MTT tetrazolium dye assay (42). […] The incubation was terminated by centrifugation (5 minutes, 300 g) and the cells were washed once with drug-free medium. Following the appropriate drug treatment, the cells were transferred to 96-well microtitre plates, 10^4 cells per well, 8 wells per sample. Plates were then kept in the dark at 37° C. in a humidified atmosphere containing 5% CO2. […] Following incubation of the plates for 4 days (to allow control cells to increase in number by 10 fold) 20 μL of a 5 mg/mL solution of MTT in phosphate buffered saline was added to each well and the plates further incubated for 5 hours. The plates were then centrifuged for 5 minutes at 300 g and the bulk of the medium pipetted from the cell pellet leaving 10-20 μL per well. 200 μL DMSO was added to each well and the samples agitated to ensure complete mixing. The optical density was the read at a wavelength of 550 nm on a Titertek Multiscan ELISA plate reader, and the dose-response curve was constructed.

NCI-H460 = assay: NCI in-vitro cytotoxicity screen, Non-Small Cell Lung Cancer panel; assay type: cell-based; details: Homo sapiens
Protocol: (§1) The compounds of this invention were also tested against the panel of 60 human cancer cell lines at the National Cancer Institute, Bethesda, Md. […] The cytotoxicity studies were conducted using a 48 hour exposure, and measuring the optical density of sulforhodamine B-derived color.

RXF 393 = assay: NCI in-vitro cytotoxicity screen, Renal Cancer panel; assay type: cell-based; details: Homo sapiens
Protocol: as §1

HCC-2998 [3] = assay: cells; details: Homo sapiens
SF-295 = assay: cells; details: Homo sapiens
OVCAR-8 = assay: cells; details: Homo sapiens
ACHN = assay: cells; details: Homo sapiens

4-(2-Chloroethyl)-3-[5-(5-benzofuran-2-carboxamido)indole-2-carboxamido]phenol [Compound 1]
GI50 (HCC-2998 [1]): 1.76 µM
TGI (HCC-2998 [1]): 3.56E-06 Molar
GI50 (HCT-116): 1.94 µM
TGI (HCT-116): 5.73E-06 Molar
GI50 (SNB-75): 18.6 µM
TGI (SNB-75): 3.32E-05 Molar
GI50 (UACC-257): 1.88 µM
TGI (UACC-257): 3.40E-06 Molar

COC(=O)c1[nH]c2c(O)cc(NC(=O)c3cc4cc(OC)c(OC)c(OC)c4[nH]3)c(CCCl)c2c1C(=O)OC [Compound 22, Dimethyl 4-(2-chloroethyl)-7-hydroxy-5-(5,6,7-trimethoxyindole-2-carboxamido)indole-2,3-dicarboxylate]
IC50 ([2]; 1 hour exposure): 0.31 ± 0.22 µM
IC50 ([2]; 72 h, continuous exposure (3 days)): 0.25 ± 0.096 µM
GI50 (NCI-H460): 0.114 µM
GI50 (RXF 393; RXF 393): 0.0747 µM
CC50 (RXF 393; RXF 393, read-out: LC50): 21.5 µM
GI50 (HCC-2998 [3]; HCC 2998): 0.102 µM
CC50 (HCC-2998 [3]; HCC 2998, read-out: LC50): 10.8 µM
GI50 (SF-295; SF-295): 0.126 µM
CC50 (SF-295; SF-295, read-out: LC50): > 50 µM
GI50 (OVCAR-8; OVCAR-8): 0.0709 µM
CC50 (OVCAR-8; OVCAR-8, read-out: LC50): 1.76 µM
GI50 (ACHN): 0.0446 µM
CC50 (ACHN; read-out: LC50): > 50 µM

Source: patent US20030073731A1, “Compositions and methods of the use thereof achiral analogues of CC-1065 and the duocarmycins” (priority 2000, published 2003)
